Earlier results on 14 molecules are cited in patent US6218375A, “Complex of ras-farnesyltransferase inhibitor and sulfobutylether-7-β-cyclodextrin or 2-hydroxypropyl-β-cyclodextrin and method” (priority 2000, dated 2001).

For data set [1] the following is noted: by cyclodextrins.
For data set [2] the following is noted: by β-cyclodextrin.
For data set [3] the following is noted: complexes with cyclodextrin derivatives, sublingual or buccal route.

Consider `CCN(CC)CCOC(=O)C(c1ccccc1)c1ccccc1` [adipherine], for which, in data set [1], the water-solubility entry is recorded as “increase water-solubility”.
Consider `C=CCS[S+]([O-])CC=C` (centres unmarked) [allicin], for which the stabilization result in data set [2] is recorded as “increases stabilization”.
Take `CC(C)C12C=CC(C)(CC1)OO2` (centres unmarked) [ascaridole]: in data set [2], the stabilization result was “increases stabilization”.
Consider `CC(=O)Oc1ccccc1C(=O)O` [aspirin], for which the water-solubility entry in data set [1] was “increase water-solubility”.
In the case of `CCOC(=O)c1ccc(N)cc1` [benzocaine], the water-solubility entry in data set [1] is on record as “increase water-solubility”. For the same molecule, the stabilization entry in data set [2] is “increases stabilization”.
Regarding `C[C@]12CC[C@@H]3c4ccc(O)cc4CC[C@H]3[C@@H]1CC[C@@H]2O` [estradiol], in data set [3], the elimination result was “only gradual elimination” and the “transfer into the systemic circulation” value is recorded as “effective transfer of these hormones into the systemic circulation”.
As to `COc1ccc2c(c1)c(CC(=O)O)c(C)n2C(=O)c1ccc(Cl)cc1` [indomethacin], the stabilization result in data set [2] is “increases stabilization”.
In the case of `CCCCC/C=C\C/C=C\CCCCCCCC(=O)O` [linoleic acid], the stabilization entry in data set [2] is given as “increases stabilization”.
Turning to `O=[N+]([O-])OCC(CO[N+](=O)[O-])O[N+](=O)[O-]` [nitroglycerin], the stabilization entry in data set [2] is reported as “increases stabilization”.
Regarding `CCN(CC)CCOC(=O)c1ccc(N)cc1` [procaine], the water-solubility entry in data set [1] is “increase water-solubility”. The stabilization entry in data set [2] was “increases stabilization”.
As for `CC(=O)[C@H]1CC[C@H]2[C@@H]3CCC4=CC(=O)CC[C@]4(C)[C@H]3CC[C@]12C` [progesterone], in data set [3], the elimination entry is “only gradual elimination” and the “transfer into the systemic circulation” value is recorded as “effective transfer of these hormones into the systemic circulation”.
With `O=C(O)c1ccccc1O` [salicyclic acid], the stabilization result in data set [2] was “increases stabilization”.
Regarding `C[C@]12CC[C@H]3[C@@H](CCC4=CC(=O)CC[C@@]43C)[C@@H]1CC[C@@H]2O` [testosterone], the water-solubility entry in data set [1] is given as “increase water-solubility”. Further, in data set [3], the elimination entry is “only gradual elimination” and the “transfer into the systemic circulation” value is listed as “effective transfer of these hormones into the systemic circulation”.
With `C=C1CC[C@H](O)C/C1=C/C=C1\CCC[C@]2(C)[C@@H]([C@H](C)CCCC(C)C)CC[C@@H]12` [vitamin D3], the water-solubility entry in data set [1] is on record as “increase water-solubility”.
